Results: US6080761A, “Inhibition of smooth muscle cell migration by (R)-amlodipine” (Pfizer Inc., priority 1993, dated 2000)
Read-outs that look alike come from different tables or passages of the source.

Test system: rabbit aortic smooth muscle cells
Assay: aortic explant assay of smooth muscle cell migration induced by platelet-derived growth factor
Type: cell-based
Details: Oryctolagus cuniculus, read-out: % inhibition of SMC migration from explants
Description: In this method uniform pieces of intimal/medial tissue from rabbit aorta were cultured in individual wells of a well plate. Migration was induced by addition of platelet-derived growth factor to the culture. Following a lag phase of several days the smooth muscle cells migrated from the explanted tissue and proliferated.
The distance covered by the outgrowing smooth muscle cells was measured.
This assay was carried out with varying concentrations of test compound added to the culture. The compounds thus tested were the maleate salts of the racemic mixture of R(+) and S(-) amlodipine, the maleate salts of R(+) and S(-) amlodipine separately and the known calcium channel-blocking agents nitrendipine and verapamil.
The results obtained are shown in Table 1, in which the percentage inhibition of smooth muscle cell migration for concentrations of test compound of 1 nanomole and 0.1 nanomole are recorded.

[1] = 0.1 nM test compound, rabbit aortic explants, PDGF-induced migration
[2] = 1 nM test compound, rabbit aortic explants, PDGF-induced migration

Compound | inhibition at 0.0001 µM [1] [%] | inhibition at 0.001 µM [2] [%] | inhibition at 0.0001 µM [%] | inhibition at 0.001 µM [%]
CCOC(=O)C1=C(C)NC(C)=C(C(=O)OC)C1c1cccc([N+](=O)[O-])c1 (stereo not shown) [Nitrendipine, nitrendipine] | 14 | 28 |  | 
COc1ccc(CCN(C)CCCC(C#N)(c2ccc(OC)c(OC)c2)C(C)C)cc1OC (stereo not shown) [Verapamil, verapamil] |  |  | 13 | 22
CCOC(=O)C1=C(COCCN)NC(C)=C(C(=O)OC)[C@H]1c1ccccc1Cl [Amlodipine R (+), R(+) isomer of 3-ethyl-5-methyl-2-(2-aminoethoxy-methyl)-4-(2-chlorophenyl)-1,4-dihydro-6-methylpyridine-3,5-dicarboxylate] | 36 | 39 |  | 
CCOC(=O)C1=C(COCCN)NC(C)=C(C(=O)OC)[C@@H]1c1ccccc1Cl [Amlodipine S (-)] | 21 | 30 |  | 
CCOC(=O)C1=C(COCCN)NC(C)=C(C(=O)OC)C1c1ccccc1Cl (racemic) [Amlodipine (racemate), 3-ethyl-5-methyl-2-(2-aminoethoxy-methyl)-4-(2-chlorophenyl)-1,4-dihydro-6-methylpyridine-3,5-dicarboxylate] | 39 | 33 |  | 
